Structures can show the parent of a compound that is named as a salt. Where two headings read alike, the source gives them in different places. Ends that are not written are not given here.

The source of these data is US20030236457A1, “Method of endovascular brain mapping” (priority 2002, published 2003).

The conditions of data set [1]: cited from earlier work.
For data set [2] the following is noted: chronic subcutaneous injections; cited from earlier work.
The next data set relates to rat brain. As to the kind of experiment: Endovascular brain mapping: dye or embolic agent infused into the internal carotid artery, brains harvested to examine staining quality. Format: in vivo, Sprague Dawley rats. The note with it: ICA infusion after blood brain barrier disruption with arabinose, dye mixed with Omnipaque.
The conditions of data set [3]: cited from earlier work. The source holds these as a separate data set.
The next data set concerns brain parenchyma. As to conditions: awake patient, intra-arterial infusion; cited from earlier work.
[4] abbreviates: Table 3, solvent or buffer named.
Where [5] appears, read: Table 1, medium in which the fluorophore is solubilised.

Method for rat brain: Generally, Sprague Dawley rats were anesthetized and vascular access obtained by ventral cervical cutdown. A catheter was introduced into the common carotid artery proximal to the ICA. All other branches were clamped temporarily with aneurysm clips, permitting flow to the ICA alone. The blood brain barrier was disrupted with a solution of arabinose. […] Tantalum powder was also tested without blood brain barrier disruption. The brains were harvested for examination of the quality of staining.
Using a carotid cutdown method, the CCA was exposed and a catheter was introduced into the lumen proximal to the ICA. A ligature secured the catheter within the vessel. The external carotid artery and occipital artery were clamped, preserving flow to the ICA.
To test the use of tantalum powder, the same procedure described above was performed without disruption of the blood brain barrier. A small amount of tantalum powder suspension was then injected under fluoroscopic visualization until the right hemispheric distribution was opacified.

In the case of “FLUO-RGGRLSYSRRRESTSTGR (not fully specified (N-terminus); printed as FLUO-RGGRLSYSRRRESTSTGR) [FLUO-L-SynB1]”, in data set [1] (setting [4]), the Solubility entry is given as “Phosphate”.

Take `CCCCc1ccc2n1[B-](F)(F)[N+]1=C(CCCCCCCCC(=O)O)C=CC1=C2` [C4-BODIPY ® (500/510) C9, 5-butyl-4,4-difluoro-4-bora-3a,4a-diaza-s-indacene-3-nonanoic acid]: the Solubility result in data set [1] (setting [5]) is “CDs”. Regarding `CCN(Cc1cccc(S(=O)(=O)[O-])c1)c1ccc(C(=C2C=CC(=[N+](CC)Cc3cccc(S(=O)(=O)[O-])c3)C=C2)c2ccc(O)cc2S(=O)(=O)[O-])cc1.[Na+].[Na+]` [FD & C Green #3], the induction of sarcomas result in data set [2] is given as “induction of sarcomas”. The entries for the “staining of the selected vascular distribution of the brain” value in the data set with rat brain and with rat brain (listed as FD&C Green #3) were “clearly stained both on the cortical surface” and “good staining of a selective vascular distribution”, respectively. On to `CCCCCCCCCCCC(=O)Nc1ccc(-c2c3ccc(=O)cc-3oc3cc(O)ccc23)c(C(=O)O)c1` [5-dodecanoylamino-fluorescein], for which the Solubility entry in data set [1] (setting [5]) is “CDs”. For the compound “FLUO-RRLSYSRRRF (not fully specified (N-terminus); printed as FLUO-RRLSYSRRRF) [FLUO-L-SynB3]”, the Solubility result in data set [1] (setting [4]) is recorded as “PBS”. `NCc1ccc(-c2c3ccc(=O)cc-3oc3cc(O)ccc23)c(C(=O)O)c1` [5-(aminomethyl) fluorescein, hydrochloride]: the Solubility result in data set [1] (setting [4]) is “DMF”. On to `CC1=CC(C)=[N+]2C1=Cc1c(C)cc(C)n1[B-]2(F)F` [Tetramethyl- BODIPY ® (505/515), 4,4-difluoro-1,3,5,7-tetramethyl-4-bora-3a,4a-diaza-s-indacene], for which the Solubility entry in data set [1] (setting [5]) is “Cyclodextrins (CD)”. In the case of carboxymethyl-β-cyclodextrin [CM-β-CD], in data set [3], the solubility in water is 50 mg/mL. As for `C=CCC1(C(C)C#CCC)C(=O)N=C(O)N(C)C1=O` (racemic) [Brevital®, Methohexital Sodium; 2,4,6 (1H, 3H, 5H) Pyrimidinetrione, 1-methyl-5-(1-methyl-2-pentynyl)-5-(2-propenyl)-, (±)-, monosodium salt], in the data set on brain parenchyma, the “duration of temporary neurological deficits after infusion” value is given as “resolve back to baseline within several minutes”.
